# From the METLIN SMRT retention time set (Domingo-Almenara et al. 2019)
# Assay: gradient 5% acetonitrile 3 min, to 50% in 2 min, to 85% in 15 min, held 3 min, 100 µL/min
# Details: column: Zorbax Extend-C18 2.1 x 50 mm; eluents: water / acetonitrile, 0.1% formic acid
# Procedure, shortened: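 A Zorbax Extend-C18 column (2.1 × 50 mm, 1.8 μm) run at 100 μL/min with water and acetonitrile, both containing 0.1% formic acid, separated mixtures of ~100 pure standards. The HPLC was coupled to a quadrupole time-of-flight mass spectrometer operated in positive and negative ionization mode, with dead and dwell volumes of 40 μL and 900 μL. Each retention time was taken from a computationally picked adduct peak that was then manually inspected.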
row,SMILES,RP-LC retention time [s]
1,COc1ccc(S(=O)(=O)CCC(=O)Nc2sc3c(c2C(N)=O)CCC(C)C3)cc1 (stereo not given),793
2,COc1ccc2c(c1)C1(CCN(C(=O)Nc3ccccc3C)C1)C(=O)N2 (stereo not given),707
3,CCn1c(N2CCCC(C(=O)N3CCN(Cc4ccc5c(c4)OCO5)CC3)C2)cc(=O)n(C)c1=O (stereo not given),616
4,CCC(=O)N(C1CCOCC1)C1CCN(S(=O)(=O)c2ccc(C(F)(F)F)cc2)CC1,892
5,CCCN(C)c1nccn2c(=O)n(CC(=O)Nc3ccc(C)c(Cl)c3)nc12,765
6,COc1cc(C2=NN(C(C)=O)C(c3cccnc3)O2)cc(OC)c1OC(C)=O (stereo not given),728
7,C=CCN1CCc2cccc3c2[C@H]1Cc1ccc(O)c(O)c1-3,659
8,CCC(C(=O)Nc1ccc2c(c1)OCO2)n1cnc2nc3c(cc2c1=O)CCCC3 (stereo not given),773
9,COc1ccccc1OCC1c2ccsc2CCN1C(=O)CN(C(C)=O)C(C)C (stereo not given),773
10,Cc1c(F)cccc1NC(=O)C1CCc2nc(N3CCOCC3)ncc2C1 (stereo not given),808
11,CCCn1c(C2CCN(C(=O)c3ccc(Br)o3)C2)nc2cccnc21 (stereo not given),735
12,CCCn1ccc2sc(C)c(C(=O)NCCC3=CCCCC3)c2c1=O,1000
13,O=C(c1ccc(OCC2CCN(C(=O)c3ccco3)CC2)cc1)N1CCOCC1,718
14,O=C(c1c(F)cccc1Cl)N1CCN(S(=O)(=O)c2cc3c4c(c2)CCC(=O)N4CCC3)CC1,828
15,O=C(c1ccco1)N1CCC(OC2CCN(Cc3ccccc3)CC2)CC1,595
16,CCCNc1cc(N2CCCC(CCC(=O)NC(C)C)C2)ncn1 (stereo not given),616
17,O=C(NCc1cccs1)C1CN(C(=O)c2cccs2)CC12CCCCC2 (stereo not given),856
18,Cc1ccc(CNC(=O)Nc2cc3c(cc2N2CCOCC2)n(C)c(=O)n3C)cc1,750

row,SMILES,RP-LC retention time [s]
1,CN1CCN(c2c(C(=O)c3ccccc3)cnc3cc4c(cc23)OCCO4)CC1,551
2,O=C(c1ccsc1)N1CCC(N(C(=O)C2CC2)C2CCOCC2)CC1,662
3,Cc1noc([C@@H]2CC(F)(F)CN2S(=O)(=O)c2cccc(F)c2)n1,891
4,O=C(CC1CCCCC1)Nc1ccc(-c2nnc3n2CCCC3)cc1,719
5,CSc1nnc(-c2nn(C)c3c2CN(C(=O)c2ccc(Cl)cc2)CC3)n1C,736
6,CCCNC(=O)N1CCCN(C)c2ccccc21,613
7,CC(=O)N1CCc2sc(C(=O)N3CCN(c4ccccn4)CC3)cc2C1,575
8,COc1ccc(N2CC(NC(=O)NN3CCOCC3)CC2=O)cc1 (stereo not given),587
9,CCc1nc(-c2csc(S(=O)(=O)N3CCCC(C(=O)Nc4cc(Cl)ccc4C)C3)c2)no1 (stereo not given),1130
10,[N-]=[N+]=Nc1ccc2c(c1)Sc1ccccc1N2CCCCN1CCN(Cc2ccc(C(=O)c3ccccc3)cc2)CC1,1040
11,Cc1cccc(N2CCN(S(=O)(=O)c3ccc(-c4nnc(C5CC5)o4)o3)CC2)c1,1020
12,CCOc1ccc(NC(=O)C2CCCN2S(=O)(=O)c2ccc(OCC)cc2)cc1 (stereo not given),967
13,COC(=O)c1c(C)[nH]c(C(=O)N2CCCC(C(=O)NCc3ccccn3)C2)c1C (stereo not given),577
14,Cc1cnc(C2CCC2)n1CCNC(=O)c1cc(C2CC2)[nH]n1,586
15,COc1ccc2c(c1)c(CN1CCC(N3C[C@H](OC)[C@@H]3c3cccnc3)CC1)cn2C(C)C,596
16,CCN(CC)S(=O)(=O)c1ccc2c(c1)N(CC(=O)N(C)Cc1ccco1)C(=O)C1CCCCN21 (stereo not given),959
17,COC(=O)c1ccc(Cl)cc1NC(=O)NCCc1cn(C)c2ncccc12,845

# Further lines, results first:
row,RP-LC retention time [s],SMILES
1,839,c1cc(-c2noc(-c3ccoc3)n2)cc(-c2ccn[nH]2)c1
2,666,COCCNC(=O)c1ccc2c(c1)nc(C)n2-c1ccc(Br)cc1
3,1210,Cc1nc(C)c(C(=O)Nc2nc(-c3ccc(-c4ccccc4)cc3)cs2)s1
4,651,COc1ccccc1C(CNC(=O)c1cc(=O)c2cc(Br)ccc2o1)N(C)C (stereo not given)
5,1020,O=C(Nc1cc(F)ccc1F)N1CCCC1c1nc(-c2ccccc2)no1 (stereo not given)
6,1160,CCCCN(C)S(=O)(=O)c1c(C)nn(-c2ccc(-c3ccccc3)nn2)c1C
7,1010,Cc1ccc(-n2nc(N3CCCC(C(=O)NCCCc4ccccc4)C3)ccc2=O)cc1Cl (stereo not given)
8,1090,CCn1ncc(Br)c1C(=O)Nc1ccccc1Cl
9,632,CCOC(=O)Cc1csc(NC(=O)CSc2nnc(-c3ccncc3)o2)n1
10,1110,COc1ccc(-n2c(=O)c(C(=O)NCC3CC3)c(O)c3cccnc32)cc1
11,704,O=C(CCc1c[nH]c2ccccc12)Nc1ccc(-c2nnc3n2CCCC3)cc1
12,802,CCOc1ccc(NC(=O)N2CCN(c3ccc(=O)n(-c4ccc(C)cc4)n3)CC2)cc1
13,1130,Cc1cccc(-n2c(=O)c3sccc3n(Cc3nc(-c4cccc(Br)c4)no3)c2=O)c1
14,1020,COc1ccc(NC(=O)c2cc3c(=O)oc4ccccc4c3n2C)cc1Cl
15,1100,O=C(NCc1cccs1)C1CCCN(c2nc3ccccc3n(Cc3ccccc3)c2=O)C1 (stereo not given)
16,726,CC(C)n1nnc2cc(C(=O)N(C)CC(=O)Nc3ccc(F)cc3)ccc21
17,733,CC(=O)c1cccc(C(=O)N2CCC3(CC2)NC(=O)N(Cc2ccccc2)C3=O)c1
18,788,CCOc1ccc(NC(=O)c2c(C)oc3nc(C)nc(N4CCCC4)c23)cc1
19,785,O=C(c1cc(-c2ccccc2)n[nH]1)N1CCC2(CC1)N=C(c1ccccc1)NO2
20,984,Cc1ccc(-c2nnc(-c3cccc(S(=O)(=O)NC(C)C)c3)o2)cc1
21,778,Cc1ccc(Nc2nc3ccncc3n(Cc3ccccc3)c2=O)cc1
22,690,Cc1nn(C(C)C(=O)NCCCN2CCc3ccccc3C2)c(=O)c2c(C)n(-c3ccccc3)nc12 (stereo not given)
23,961,Fc1ccc(-c2nc3cnc(Br)cn3c2Nc2ccc3c(c2)OCCO3)cc1
24,953,c1ccc(-c2nc3nc4c(c(Nc5ccc6c(c5)OCO6)n3n2)CCCC4)cc1
25,1280,Cc1ccc(-c2noc(-c3ccc(=O)n(CCC(C)C)n3)n2)cc1
26,804,Cn1cc(-c2cc3n(n2)CCCN3C(=O)CCC(=O)NCc2ccccc2)c2ccccc21
27,636,Cc1ccc2sc(N(CCCn3ccnc3)C(=O)c3ccc4c(c3)OCCO4)nc2c1C
28,815,O=C(NCCc1ccccc1)C1CCN(C(=O)c2ncn3c2COC(c2ccc(Cl)cc2)C3)CC1 (stereo not given)
29,947,CCCc1nc(-c2c(C)cc(C)nc2NC(=O)c2ccc(F)c(F)c2)no1
30,752,CN(C)c1ccc(NC(=O)Cn2cccc2-c2nc(-c3ccc4c(c3)OCO4)no2)cc1
